Test results published in PMC5218480 (PLoS ONE, 2017).

Test system: MV-4-11 cells
Assay: Gene expression microarray analysis (Affymetrix PrimeView) and GSEA
Assay type: cell-based, human
Set-up: RFU PODN (11730768_x_at) / Fold change /veh PODN (11730768_x_at) / RFU LINC00158 (11744669_a_at) / Fold change /veh LINC00158 (11744669_a_at) / RFU DUSP10 (11751237_a_at) / Fold change /veh DUSP10 (11751237_a_at) / RFU ID3 (11757404_x_at) / Fold change /veh ID3 (11757404_x_at) / RFU PLEKHG5 (11737974_s_at) / Fold change /veh PLEKHG5 (11737974_s_at) / RFU LRRC4B (11730491_at) / Fold change /veh LRRC4B (11730491_at) / RFU GIMAP4 (11747438_a_at) / Fold change /veh GIMAP4 (11747438_a_at) / RFU KRT8 (11758183_x_at) / Fold change /veh KRT8 (11758183_x_at) / RFU CNN1 (11734310_a_at) / Fold change /veh CNN1 (11734310_a_at) / RFU VPS37D (11726825_at) / Fold change /veh VPS37D (11726825_at) / RFU C10orf10 (11716522_x_at) / Fold change /veh C10orf10 (11716522_x_at) / RFU KIR2DL2 /// KIR2DL4 /// KIR2DL5A /// KIR2DL5B /// KIR2DS1 /// KIR2DS2 /// KIR2DS3 /// KIR2DS4 /// KIR3DL3 /// KIR3DL3 /// KIR3DS1 (11738374_at) / Fold change /veh KIR2DL2 /// KIR2DL4 /// KIR2DL5A /// KIR2DL5B /// KIR2DS1 /// KIR2DS2 /// KIR2DS3 /// KIR2DS4 /// KIR3DL3 /// KIR3DL3 /// KIR3DS1 (11738374_at) / RFU C1QL1 (11718748_at) / Fold change /veh C1QL1 (11718748_at) / RFU TMPRSS4 (11747572_a_at) / Fold change /veh TMPRSS4 (11747572_a_at) / RFU HAMP (11756126_x_at) / Fold change /veh HAMP (11756126_x_at) / RFU RNFT2 (11725882_a_at) / Fold change /veh RNFT2 (11725882_a_at) / RFU NR4A2 (11747474_a_at) / Fold change /veh NR4A2 (11747474_a_at) / RFU ABCC12 (11746883_a_at) / Fold change /veh ABCC12 (11746883_a_at) / RFU TMEM136 (11760407_x_at) / Fold change /veh TMEM136 (11760407_x_at) / RFU CLDN22 /// WWC2 (11732394_at) / Fold change /veh CLDN22 /// WWC2 (11732394_at) / RFU HLA-DPB1 (11760878_x_at) / Fold change /veh HLA-DPB1 (11760878_x_at) / RFU SPINT1 (11716480_a_at) / Fold change /veh SPINT1 (11716480_a_at) / RFU GAP43 (11754022_s_at) / Fold change /veh GAP43 (11754022_s_at) / RFU A4GNT (11735810_at) / Fold change /veh A4GNT (11735810_at) / RFU PRB3 (11715151_x_at) / Fold change /veh PRB3 (11715151_x_at) / RFU TUBB4B (11761932_at) / Fold change /veh TUBB4B (11761932_at) / RFU CAPN14 (11732068_a_at) / Fold change /veh CAPN14 (11732068_a_at) / RFU TMCC2 (11721928_a_at) / Fold change /veh TMCC2 (11721928_a_at) / RFU IRGQ (11745062_a_at) / Fold change /veh IRGQ (11745062_a_at) / RFU FAM174B (11720279_a_at) / Fold change /veh FAM174B (11720279_a_at) / RFU TMPRSS4 (11748680_a_at) / Fold change /veh TMPRSS4 (11748680_a_at) / RFU FAM212B (11763350_a_at) / Fold change /veh FAM212B (11763350_a_at) / RFU PLEKHG5 (11743358_a_at) / Fold change /veh PLEKHG5 (11743358_a_at) / RFU ZSCAN30 (11745921_a_at) / Fold change /veh ZSCAN30 (11745921_a_at) / RFU CMKLR1 (11741424_a_at) / Fold change /veh CMKLR1 (11741424_a_at) / RFU LOC101060620 /// MAPK8IP1 (11723275_at) / Fold change /veh LOC101060620 /// MAPK8IP1 (11723275_at) / RFU SPTSSB (11747773_x_at) / Fold change /veh SPTSSB (11747773_x_at) / RFU PRSS12 (11739890_at) / Fold change /veh PRSS12 (11739890_at) / RFU BIN1 (11741810_x_at) / Fold change /veh BIN1 (11741810_x_at) / RFU WNT11 (11732464_a_at) / Fold change /veh WNT11 (11732464_a_at) / RFU C10orf10 (11716521_a_at) / Fold change /veh C10orf10 (11716521_a_at) / RFU C5orf56 (11738089_at) / Fold change /veh C5orf56 (11738089_at) / RFU CYB561 (11721691_x_at) / Fold change /veh CYB561 (11721691_x_at) / RFU ANKRD19P (11752326_a_at) / Fold change /veh ANKRD19P (11752326_a_at) / RFU OR2T12 /// OR2T33 /// OR2T8 (11738714_s_at) / Fold change /veh OR2T12 /// OR2T33 /// OR2T8 (11738714_s_at) / RFU VCAN (11748164_a_at) / Fold change /veh VCAN (11748164_a_at) / RFU JSRP1 (11732532_at) / Fold change /veh JSRP1 (11732532_at) / RFU KRTAP10-11 (11738290_x_at) / Fold change /veh KRTAP10-11 (11738290_x_at) / RFU MYO3A (11730013_a_at) / Fold change /veh MYO3A (11730013_a_at) / RFU EBF3 (11725865_a_at) / Fold change /veh EBF3 (11725865_a_at) / RFU CAMK2N1 (11719241_x_at) / Fold change /veh CAMK2N1 (11719241_x_at) / RFU C5orf56 (11738088_a_at) / Fold change /veh C5orf56 (11738088_a_at) / RFU OLFML3 (11715873_a_at) / Fold change /veh OLFML3 (11715873_a_at) / RFU LOC100653217 /// NTM (11731650_a_at) / Fold change /veh LOC100653217 /// NTM (11731650_a_at) / RFU MAPK11 (11762145_a_at) / Fold change /veh MAPK11 (11762145_a_at) / RFU FIZ1 (11724087_x_at) / Fold change /veh FIZ1 (11724087_x_at) / RFU OASL (11726364_x_at) / Fold change /veh OASL (11726364_x_at) / RFU SOX15 (11748057_x_at) / Fold change /veh SOX15 (11748057_x_at) / RFU CD79A (11719716_a_at) / Fold change /veh CD79A (11719716_a_at) / RFU HIST1H1D (11736915_at) / Fold change /veh HIST1H1D (11736915_at) / RFU CASKIN2 (11723855_a_at) / Fold change /veh CASKIN2 (11723855_a_at) / RFU LOC730098 (11760151_x_at) / Fold change /veh LOC730098 (11760151_x_at) / RFU OR4N2 (11742367_at) / Fold change /veh OR4N2 (11742367_at) / RFU PRRT2 (11749266_a_at) / Fold change /veh PRRT2 (11749266_a_at) / RFU SNX32 (11753110_a_at) / Fold change /veh SNX32 (11753110_a_at) / RFU CDHR5 (11726645_a_at) / Fold change /veh CDHR5 (11726645_a_at) / RFU RCAN1 (11760418_a_at) / Fold change /veh RCAN1 (11760418_a_at) / RFU FAM167A (11723789_a_at) / Fold change /veh FAM167A (11723789_a_at) / RFU FAM26E (11764081_at) / Fold change /veh FAM26E (11764081_at) / RFU ISYNA1 (11749810_s_at) / Fold change /veh ISYNA1 (11749810_s_at) / RFU ACY1 (11761880_at) / Fold change /veh ACY1 (11761880_at) / RFU 11764098_at / Fold change /veh 11764098_at / RFU SAMD14 (11745864_x_at) / Fold change /veh SAMD14 (11745864_x_at) / RFU NPB (11741838_a_at) / Fold change /veh NPB (11741838_a_at) / RFU TMPRSS6 (11731388_a_at) / Fold change /veh TMPRSS6 (11731388_a_at) / RFU KRTAP10-2 (11738614_at) / Fold change /veh KRTAP10-2 (11738614_at) / RFU ARHGAP8 /// PRR5-ARHGAP8 (11727945_x_at) / Fold change /veh ARHGAP8 /// PRR5-ARHGAP8 (11727945_x_at) / RFU KRTAP5-7 /// NADSYN1 (11734609_at) / Fold change /veh KRTAP5-7 /// NADSYN1 (11734609_at) / RFU RASL12 (11751679_a_at) / Fold change /veh RASL12 (11751679_a_at) / RFU CDKN2B (11736163_a_at) / Fold change /veh CDKN2B (11736163_a_at) / RFU PRF1 (11729649_at) / Fold change /veh PRF1 (11729649_at) / RFU, ZNF638 /// ZNF638-IT1 / Fold change vs veh, ZNF638 /// ZNF638-IT1 / RFU, PANK3 / Fold change vs veh, PANK3 / RFU, SH3YL1 / Fold change vs veh, SH3YL1 / RFU, ZEB2 / Fold change vs veh, ZEB2 / RFU, NRIP1 / Fold change vs veh, NRIP1 / RFU, PTTG1IP / Fold change vs veh, PTTG1IP / RFU, CAPN2 / Fold change vs veh, CAPN2 / RFU, MED14 / Fold change vs veh, MED14 / RFU, SNORA58 / Fold change vs veh, SNORA58 / RFU, C1orf63 / Fold change vs veh, C1orf63 / RFU, LRRFIP1 / Fold change vs veh, LRRFIP1 / RFU, NDUFAF7 / Fold change vs veh, NDUFAF7 / RFU, SLC12A2 / Fold change vs veh, SLC12A2 / RFU, IBTK / Fold change vs veh, IBTK / RFU, ESF1 / Fold change vs veh, ESF1 / Fold change vs veh, TMEM50B / RFU, TAOK1 / Fold change vs veh, TAOK1 / RFU, ACBD3 / Fold change vs veh, ACBD3 / RFU, TMA16 / Fold change vs veh, TMA16 / RFU, RWDD3 / Fold change vs veh, RWDD3 / RFU, BCAT1 / Fold change vs veh, BCAT1 / RFU, EDEM3 / Fold change vs veh, EDEM3 / RFU, TMEM33 / Fold change vs veh, TMEM33 / RFU, WDR75 / Fold change vs veh, WDR75 / RFU, AHCTF1 / Fold change vs veh, AHCTF1 / RFU, TFRC / Fold change vs veh, TFRC / RFU, ZDHHC17 / Fold change vs veh, ZDHHC17 / RFU, NOM1 / Fold change vs veh, NOM1 / RFU, ARL8B / Fold change vs veh, ARL8B / RFU, ZBTB11 / Fold change vs veh, ZBTB11 / RFU, TAMM41 / Fold change vs veh, TAMM41 / RFU, KIAA1704 /// LOC100996395 / Fold change vs veh, KIAA1704 /// LOC100996395 / RFU, ING1 / Fold change vs veh, ING1 / RFU, TRMT61B / Fold change vs veh, TRMT61B / RFU, FUBP3 / Fold change vs veh, FUBP3 / RFU, TP53 / Fold change vs veh, TP53 / RFU, TNKS2 / Fold change vs veh, TNKS2 / RFU, ZFP14 / Fold change vs veh, ZFP14 / RFU, ACTR2 / Fold change vs veh, ACTR2 / RFU, PPP3R1 / Fold change vs veh, PPP3R1 / RFU, PIK3R1 / Fold change vs veh, PIK3R1 / RFU, HNRNPA1 / Fold change vs veh, HNRNPA1 / RFU, RNF170 / Fold change vs veh, RNF170 / RFU, ZNF28 / Fold change vs veh, ZNF28 / RFU, RNGTT / Fold change vs veh, RNGTT / RFU, OGT / Fold change vs veh, OGT / RFU, BRD1 / Fold change vs veh, BRD1 / RFU, MARS / Fold change vs veh, MARS / RFU, ZNF655 / Fold change vs veh, ZNF655 / RFU, FAHD1 / Fold change vs veh, FAHD1 / RFU, BDP1 / Fold change vs veh, BDP1 / RFU, LRRCC1 / Fold change vs veh, LRRCC1 / RFU, ARID1A / Fold change vs veh, ARID1A / RFU, ZNF146 / Fold change vs veh, ZNF146 / RFU, ZNF330 / Fold change vs veh, ZNF330 / RFU, GPN3 / Fold change vs veh, GPN3 / RFU, C9orf123 / Fold change vs veh, C9orf123 / RFU, N4BP2L2 / Fold change vs veh, N4BP2L2 / RFU, ARFIP1 / Fold change vs veh, ARFIP1 / RFU, FAM179B / Fold change vs veh, FAM179B / RFU, BCL10 / Fold change vs veh, BCL10 / RFU, UHRF1BP1L / Fold change vs veh, UHRF1BP1L / RFU, BET1 / Fold change vs veh, BET1 / RFU, CNOT2 / Fold change vs veh, CNOT2 / RFU, ZNF268 / Fold change vs veh, ZNF268 / Fold change vs veh, ZNF507 / RFU, DGCR2 / Fold change vs veh, DGCR2 / RFU, WDSUB1 / Fold change vs veh, WDSUB1 / Fold change vs veh, HSP90B1 /// MIR3652 / RFU, ADSS / Fold change vs veh, ADSS / RFU, GK / Fold change vs veh, GK / RFU, ZNF148 / Fold change vs veh, ZNF148 / RFU, TAF9 / Fold change vs veh, TAF9 / RFU, SLC1A5 / Fold change vs veh, SLC1A5 / RFU, SLMO2 / Fold change vs veh, SLMO2 / RFU, ABCC4 / Fold change vs veh, ABCC4 / RFU, LOC101060439 /// RAP1B / Fold change vs veh, LOC101060439 /// RAP1B / RFU, RFX7 / Fold change vs veh, RFX7 / RFU, GTPBP10 / Fold change vs veh, GTPBP10 / RFU, CNEP1R1 / Fold change vs veh, CNEP1R1 / RFU, BIVM-ERCC5 /// ERCC5 / Fold change vs veh, BIVM-ERCC5 /// ERCC5 / RFU, ILF3 / Fold change vs veh, ILF3 / RFU 11762660_at / Fold change /veh 11762660_at / RFU VCAN (11757783_s_at) / Fold change /veh VCAN (11757783_s_at) / RFU DDX43 (11728927_at) / Fold change /veh DDX43 (11728927_at) / RFU KRT8 (11758188_x_at) / Fold change /veh KRT8 (11758188_x_at) / RFU NKD1 (11759106_at) / Fold change /veh NKD1 (11759106_at) / RFU SRD5A1 (11742802_a_at) / Fold change /veh SRD5A1 (11742802_a_at) / RFU TPSAB1 /// TPSB2 (11721975_s_at) / Fold change /veh TPSAB1 /// TPSB2 (11721975_s_at) / RFU GSTM3 (11746129_a_at) / Fold change /veh GSTM3 (11746129_a_at) / RFU IL23R (11737362_x_at) / Fold change /veh IL23R (11737362_x_at) / RFU TMEM51 (11727254_a_at) / Fold change /veh TMEM51 (11727254_a_at) / RFU PIWIL2 (11732686_x_at) / Fold change /veh PIWIL2 (11732686_x_at) / RFU ORM1 (11744905_x_at) / Fold change /veh ORM1 (11744905_x_at) / RFU CCDC152 (11743942_at) / Fold change /veh CCDC152 (11743942_at) / RFU ECM1 (11717891_a_at) / Fold change /veh ECM1 (11717891_a_at) / RFU IL23R (11748794_a_at) / Fold change /veh IL23R (11748794_a_at) / RFU TNFAIP8L3 (11732012_x_at) / Fold change /veh TNFAIP8L3 (11732012_x_at) / RFU MBOAT4 (11741988_at) / Fold change /veh MBOAT4 (11741988_at) / RFU 11764193_at / Fold change /veh 11764193_at / RFU TMEM53 (11763286_at) / Fold change /veh TMEM53 (11763286_at) / RFU MAGEB2 (11727129_at) / Fold change /veh MAGEB2 (11727129_at) / RFU TMEM200A (11744735_a_at) / Fold change /veh TMEM200A (11744735_a_at) / RFU CCDC152 (11751479_a_at) / Fold change /veh CCDC152 (11751479_a_at) / RFU FAM211A (11726209_a_at) / Fold change /veh FAM211A (11726209_a_at) / RFU RGS16 (11746705_a_at) / Fold change /veh RGS16 (11746705_a_at) / RFU VCAN (11755009_s_at) / Fold change /veh VCAN (11755009_s_at) / RFU RHOB (11743442_s_at) / Fold change /veh RHOB (11743442_s_at) / RFU RGS16 (11720943_a_at) / Fold change /veh RGS16 (11720943_a_at) / RFU RGS16 (11720944_at) / Fold change /veh RGS16 (11720944_at) / RFU, VPS4B / Fold change vs veh, VPS4B / RFU, CREB1 / Fold change vs veh, CREB1 / RFU, DNAJC13 / Fold change vs veh, DNAJC13 / RFU, GNAQ / Fold change vs veh, GNAQ / RFU, CDK5R1 / Fold change vs veh, CDK5R1 / RFU, ZRANB3 / Fold change vs veh, ZRANB3 / RFU, CUL4A / Fold change vs veh, CUL4A / RFU, CCNY / Fold change vs veh, CCNY / RFU, UFL1 / Fold change vs veh, UFL1 / RFU, COG3 / Fold change vs veh, COG3 / RFU, DIAPH2 / Fold change vs veh, DIAPH2 / RFU, SKA2 / Fold change vs veh, SKA2 / RFU, AFF3 / Fold change vs veh, AFF3 / RFU, LMF1 / Fold change vs veh, LMF1 / RFU, IPO11 / Fold change vs veh, IPO11 / RFU, DFFB / Fold change vs veh, DFFB / RFU, FOXP1 / Fold change vs veh, FOXP1 / RFU, CARD8 / Fold change vs veh, CARD8 / RFU, STRN3 / Fold change vs veh, STRN3 / RFU, ADK / Fold change vs veh, ADK / RFU, RASSF2 / Fold change vs veh, RASSF2 / RFU, WIPF1 / Fold change vs veh, WIPF1 / RFU, LARP1B / Fold change vs veh, LARP1B / RFU, RASA1 / Fold change vs veh, RASA1 / RFU, RB1 / Fold change vs veh, RB1 / RFU, PPFIA1 / Fold change vs veh, PPFIA1 / RFU, MAT2A / Fold change vs veh, MAT2A / RFU, CCT5 / Fold change vs veh, CCT5 / RFU, WDR92 / Fold change vs veh, WDR92 / RFU, CUX1 / Fold change vs veh, CUX1 / RFU, TTC7A / Fold change vs veh, TTC7A / RFU, TMEM135 / Fold change vs veh, TMEM135 / RFU, DEPTOR / Fold change vs veh, DEPTOR / RFU, CPM / Fold change vs veh, CPM / RFU, DNAJB6 / Fold change vs veh, DNAJB6 / RFU, CACNA2D3 / Fold change vs veh, CACNA2D3 / RFU, DTX4 / Fold change vs veh, DTX4 / RFU, TFCP2 / Fold change vs veh, TFCP2 / RFU, GMCL1 /// GMCL1P1 / Fold change vs veh, GMCL1 /// GMCL1P1 / RFU, AEBP2 / Fold change vs veh, AEBP2 / RFU, SNHG1 /// SNORD22 /// SNORD25 /// SNORD26 /// SNORD27 /// SNORD28 /// SNORD29 /// SNORD31 / Fold change vs veh, SNHG1 /// SNORD22 /// SNORD25 /// SNORD26 /// SNORD27 /// SNORD28 /// SNORD29 /// SNORD31 / Fold change (Aza/veh), C12orf56 (ProbeSet 11735607_a_at) / Fold change (ACY-1035/veh), C12orf56 (ProbeSet 11735607_a_at) / Fold change (Aza/veh), FGFR1OP (ProbeSet 11751329_s_at) / Fold change (ACY-1035/veh), FGFR1OP (ProbeSet 11751329_s_at) / Fold change (Aza/veh), VPS36 (ProbeSet 11739960_a_at) / Fold change (ACY-1035/veh), VPS36 (ProbeSet 11739960_a_at) / RFU SYPL1 (11715823_x_at) / Fold change /veh SYPL1 (11715823_x_at) / RFU IGFBP7 (11715501_s_at) / Fold change /veh IGFBP7 (11715501_s_at) / RFU REEP3 (11722064_at) / Fold change /veh REEP3 (11722064_at) / RFU IGLL1 (11728026_x_at) / Fold change /veh IGLL1 (11728026_x_at): dose or concentration left out as unconfirmed
Conditions: ProbeSet 11760938_a_at; LIST D

## Nc1ncn([C@@H]2O[C@H](CO)[C@@H](O)[C@H]2O)c(=O)n1 [azacitidine]
  RFU, MAT2A: 129.03 RFU
